In test [1] the test system is HCoV-229E. Nature of the test: Extracellular viral amount (virions secreted to the media) by RT-qPCR, combined effect of TTFields with remdesivir. The format is cell-based, HCoV-229E in human MRC-5 lung fibroblast cells. The conditions noted are these: 48 hpi.
For test [2], the system named is HCoV-229E. Put plainly: Intracellular (cellular) viral load by RT-qPCR, combined effect of TTFields with remdesivir. The format is cell-based, HCoV-229E in human MRC-5 lung fibroblast cells. The conditions noted are these: for Calculated additive: Remdesivir alone multiplied by TTFields alone.

A word on the inhibition: it is the relative decrease from the control value, in per cent. `CCC(CC)COC(=O)[C@H](C)N[P@](=O)(OC[C@H]1O[C@@](C#N)(c2ccc3c(N)ncnn23)[C@H](O)[C@@H]1O)Oc1ccccc1` [remdesivir]: the “reduction in number of virions secreted to the media” value is on record as 31% in the test on HCoV-229E [1] (0.011 μM remdesivir alone) and 75% with HCoV-229E [1] (0.023 μM remdesivir alone). In addition, the “decrease in number of virions secreted to the media” value with HCoV-229E [1] (high dose (0.023 μM) remdesivir with concomitant 150 kHz TTFields) worked out at 88%; with HCoV-229E [1] (low dose (0.011 μM) remdesivir with concomitant 150 kHz TTFields), 68%. Besides, the “reduction of cellular viral load” value with HCoV-229E [2] (0.023 μM remdesivir alone, MRC-5 infected 3 hr, MOI 0.01, 48 hpi) was found to be 65%. In addition, in the test on HCoV-229E [2] (Human coronavirus 229E, MRC5, 0.011 μM remdesivir alone, MRC-5 infected 3 hr, MOI 0.01, 48 hpi), the inhibition at 0.011 µM was determined as 27%. In addition, the “Remdesivir alone (viral load remaining relative to control)” value in the test on HCoV-229E [2] (Remdesivir concentration 0.011) came to 73%; in the test with HCoV-229E [2] (Remdesivir concentration 0.023), 35%. The values for the Calculated additive with HCoV-229E [2] (Remdesivir concentration 0.011) and in the test with HCoV-229E [2] (Remdesivir concentration 0.023) were 42% and 20%, respectively. Moreover, the “Measured combined (viral load remaining relative to control)” value in the test on HCoV-229E [2] (Remdesivir concentration 0.011 with TTFields) turned out to be 46%; in the test on HCoV-229E [2] (Remdesivir concentration 0.023 with TTFields), 15%. Further, the “reduction of viral load” value in the test on HCoV-229E [2] (high dose (0.023 μM) remdesivir with concomitant 150 kHz TTFields, 48 hpi) was determined as 85%; with HCoV-229E [2] (low dose (0.011 μM) remdesivir with concomitant 150 kHz TTFields, 48 hpi), 54%.

Source of the values: patent US20220088403A1, “Methods And Compositions For Treating Coronavirus” (NOVOCURE GMBH, priority 2020, published 2022).
